Test results published in patent US9371295B2, “Compounds for use in the treatment of disorders that are ameliorated by inhibition of HDAC” (IRBM—Science Park S.p.A., priority 2012, dated 2016).
pEC50, pIC50: −log10 of the molar value.

Key:
[1] = system: human γ-globin promoter (EGFP reporter) in K562 cells; experiment: HbF activation assay on K562 (EGFP/RFP reporter model system for screening of inducers of fetal hemoglobin); type: cell-based; conditions: 60 hours
Description: In order to test several compounds, a model system was produced based on previous findings present in the literature. The K562 erythroid-like cell lines, isolated and characterized by Lozzio & Lozzio (Blood, 45(3), pp 321-334) from a patient with chronic myelogenous leukemia in blast crisis, have been extensively employed as a useful in vitro model to study the molecular mechanism(s) regulating the expression of embryonic and fetal human globin genes, as well as for screening of new differentiation-inducing compounds. A stable cell line where reporter genes encoding green EGFP and far-red fluorescent protein red-FP are placed under the control of the human γ-globin or β-globin promoters respectively was used (see Vadolas et al, Hum. Mol. Genet. 2004, 13, 2, 223-233 for details). The modified 3-cluster also contains the upstream regulatory region called LCR. This cell line grows in suspension at 37° C. and 5% CO2 in humidified atmosphere in the following medium: DMEM, 10% foetal bovine serum, glutamine and antibiotics (penicillin and streptomycin);
The assay procedures is as follows: • Single concentration compounds or serially diluted samples are transferred to an empty assay plates by a spotter (ATS-100, EDC Biosystems, USA) in order to have a final concentration of DMSO of 0.25% in 50 μL of cell culture. Source plats contains compounds dissolved in 100% DMSO • Black, transparent bottom, 384 wells, tissue culture treated plates are used as assay plates. • Assay plates containing spotted compounds are filled with a suspension of cell in the described assay medium. The final cell concentration is of 1000 cells per well. • Cells are incubated in humidified atmosphere, 37° C.-5% CO2, for 60 hours • Cell nuclei are stained by adding 10 ul (6 μM; 1 μM final) Hoechst 33342 (Life Technologies, USA) • The cell associated intensity is read by a plate based cytometer (ACUMEN explorer, TTP Labtech, UK) • The nuclei count is used to assess the cell proliferation/death and to normalize the total EGFP/RFP intensity. HbF Activation Assay in Human Cell Line K562
The compounds of the invention were tested in the HbF activation assay on K562, as model system for screening of potential inducers of fetal hemoglobin.

HDAC1 = biological target: T1, HDAC1 (Homo sapiens, UniProt Q13547); experiment: HDAC1 assay (Fluor-de-Lys fluorescent deacetylase assay); type: biochemical; conditions: read-out: hHDAC IC50
T1 construct: made in house
Procedure: The HDAC1 assay is used to quantify the histone deacetylase (HDAC) activity. The assay is performed in 384 well microtiter plates by pre-incubating serial dilutions of the compounds with a fixed concentration of HeLa nuclear extract or purified HDAC1 and then adding an acetylated lysine-containing substrate/developer that fluoresces upon deacetylation.
Reagents of the HDAC Fluorescent Activity Assay are purchased from BioMol Research Laboratories (Plymouth Meeting, Pa.) and feature the Fluor-de-Lys™ Substrate/Developer System.
TSA Stock: TSA is provided as a 10 mM stock solution in 100% dimethylsulfoxide (DMSO). […] The final concentration in the assay is 20 uM.
3 uM [final] TSA to this solution increases its ability to stop the reaction.
HDAC1 Working Solution: The HDAC1 enzyme is diluted in assay buffer prior to each use from a fresh aliquot of enzyme. The final concentration in the assay is 1-2 nM.
Compounds: Test compounds are directly transferred from a 100% DMSO solution into assay plates by spotting nanoliters of solutions by an acoustic dispenser (ATS-100, EDC biosystems, US).
HeLa cells transiently transfected with pCDNA3-HDAC1-FLAG are grown to 80% confluence on 10 cm culture dishes in DMEM, 10% Fetal bovine serum supplemented with antibiotics and glutamine. Cells are washed with 10 ml cold PBS and scraped into 2 ml of PBS. Cells are centrifuged for 5 minutes at 800×g at 4° C., washed with 30 ml PBS and resuspended in 10 ml PBS, counted, re-centrifuged and frozen at −80° C.
The frozen cell pellet is re-suspended in 1 ml of hypotonic lysis buffer (LB: 20 mM Hepes pH7.9, 0.25 mM EDTA, 10% glycerol) containing COMPLETE protease inhibitor and incubated on ice for 15 minutes, followed by homogenization on a 2-ml DounceB homogenizer (25 strokes). 150 mM KCl and 0.5% NP-40 are added to the homogenate and the solution is sonicated twice for 30 seconds (output5/6, duty cycle 90) and incubated for 1 hour at 4° C. After a 30 minutes centrifugation at 12000 rpm and 4° C. the supernatant (soluble extract) is collected and protein concentration is determined using the BIORAD assay.
Anti-FLAG M2 affinity resin (Sigma) is washed three times with TBS and twice with LB. 10 μl of the LB-washed resin/mg of protein (2-3 ug of Flagged-HDAC1) are added to the soluble extract (1 mL) and incubated overnight at 4° C. with gentle mixing. The resin is then collected by centrifugation, washed once with LB, twice with LB+0.1% NP40 and twice with elution buffer (50 mM Hepes pH 7.4, 5% glycerol, 100 mM KCl, 0.01% Triton X-100).
The concentration of purified HDAC is determined by Western blot analysis.

HDAC in Hela cells = experiment: HDAC Hela Cell Based assay

T1 sequence (Q13547 whole entry): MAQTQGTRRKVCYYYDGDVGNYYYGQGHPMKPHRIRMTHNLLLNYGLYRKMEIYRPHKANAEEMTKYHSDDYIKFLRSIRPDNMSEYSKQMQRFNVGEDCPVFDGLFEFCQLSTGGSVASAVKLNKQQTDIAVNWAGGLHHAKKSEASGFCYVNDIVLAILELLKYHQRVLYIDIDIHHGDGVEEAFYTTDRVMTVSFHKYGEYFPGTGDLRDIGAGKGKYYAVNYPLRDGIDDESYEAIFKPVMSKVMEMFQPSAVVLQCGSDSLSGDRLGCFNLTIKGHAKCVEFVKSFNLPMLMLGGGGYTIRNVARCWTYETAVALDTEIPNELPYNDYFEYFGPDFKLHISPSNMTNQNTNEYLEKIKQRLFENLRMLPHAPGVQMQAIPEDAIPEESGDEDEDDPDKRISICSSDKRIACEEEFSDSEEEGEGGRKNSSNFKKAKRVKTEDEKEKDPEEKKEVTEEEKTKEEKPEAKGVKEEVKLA

SMILES | pEC50 [1] | pIC50 (HDAC1) | pIC50 (HDAC in Hela cells)
CCC(=O)CCCCC[C@H](NC(=O)Cc1c(C)[nH]c2ccc(OC)cc12)c1ncc(-c2cc3ccccc3nc2OC)o1 [Compound 1, (S)-2-(5-methoxy-2-methyl-1H-indol-3-yl)-N-(1-(5-(2-methoxyquinolin-3-yl)oxazol-2-yl)-7-oxononyl)acetamide] | < 6.00 | > 7.00 | 6.00 to 7.00
CCC(=O)CCCCC[C@H](NC(=O)C1CCN(C)CC1)c1ncc(-c2ccccc2)o1 [Compound 3, (S)-1-methyl-N-(7-oxo-1-(5-phenyloxazol-2-yl)nonyl)piperidine-4-carboxamide] | < 6.00 | > 7.00 | < 6.00
CCC(=O)CCCCC[C@H](NC(=O)Cc1c(C)[nH]c2ccc(OC)cc12)c1ncc(-c2ccccc2)o1 [Compound 4, (S)-2-(5-methoxy-2-methyl-1H-indol-3-yl)-N-(7-oxo-1-(5-phenyloxazol-2-yl)nonyl)acetamide] | < 6.00 | > 7.00 | < 6.00
CCC(=O)CCCCC[C@H](NC(=O)C1CCN(C)CC1)c1ncc(-c2cccc3c2OCCO3)o1 [Compound 5] | < 6.00 | > 7.00 | < 6.00
CCC(=O)CCCCC[C@H](NC(=O)c1cncs1)c1ncc(-c2ccccc2)o1 [Compound 6, (S)-N-(7-oxo-1-(5-phenyloxazol-2-yl)nonyl)thiazole-5-carboxamide] | < 6.00 | > 7.00 | < 6.00
CCC(=O)CCCCC[C@H](NC(=O)CCN(C)C)c1ncc(-c2ccccc2)o1 [Compound 7, (S)-3-(dimethylamino)-N-(7-oxo-1-(5-phenyloxazol-2-yl)nonyl)propanamide] | < 6.00 | > 7.00 | < 6.00
CCC(=O)CCCCC[C@H](NC(=O)C1CCN(C)C1)c1ncc(-c2ccccc2)o1 (stereo partly drawn) [Compound 8, 1-methyl-N-((S)-7-oxo-1-(5-phenyloxazol-2-yl)nonyl)pyrrolidine-3-carboxamide] | < 6.00 | > 7.00 | < 6.00
CCC(=O)CCCCC[C@H](NC(=O)C(C)(C)N(C)C)c1ncc(-c2ccccc2)o1 [Compound 9, (S)-2-(dimethylamino)-2-methyl-N-(7-oxo-1-(5-phenyloxazol-2-yl)nonyl)propanamide] | < 6.00 | > 7.00 | < 6.00
CCC(=O)CCCCC[C@H](NC(=O)[C@@H]1CSC(=O)N1)c1ncc(-c2ccccc2)o1 [Compound 13, (R)-2-oxo-N-((S)-7-oxo-1-(5-phenyloxazol-2-yl)nonyl)thiazolidine-4-carboxamide] | < 6.00 | > 7.00 | < 6.00
CCC(=O)CCCCC[C@H](NC(=O)c1ccnc(Cl)c1)c1ncc(-c2ccccc2)o1 [Compound 14, (S)-2-chloro-N-(7-oxo-1-(5-phenyloxazol-2-yl)nonyl)isonicotinamide] | < 6.00 | 6.00 to 7.00 | < 6.00
CCC(=O)CCCCC[C@H](NC(=O)CN1CCN(C)CC1)c1ncc(-c2ccccc2)o1 [Compound 15, (S)-2-(4-methylpiperazin-1-yl)-N-(7-oxo-1-(5-phenyloxazol-2-yl)nonyl)acetamide] | < 6.00 | 6.00 to 7.00 | < 6.00
CCC(=O)CCCCC[C@H](NC(=O)Cn1c(C)nc2ccccc21)c1ncc(-c2ccccc2)o1 [Compound 18, (S)-2-(2-methyl-1H-benzo[d]imidazol-1-yl)-N-(7-oxo-1-(5-phenyloxazol-2-yl)nonyl)acetamide] | < 6.00 | 6.00 to 7.00 | < 6.00
CCC(=O)CCCCC[C@H](NC(=O)C1CCCCCN1C)c1ncc(-c2ccccc2)o1 (stereo partly drawn) [Compound 21, 1-methyl-N-((S)-7-oxo-1-(5-phenyloxazol-2-yl)nonyl)azepane-2-carboxamide] | < 6.00 | 6.00 to 7.00 | < 6.00
CCC(=O)CCCCC[C@H](NC(=O)CCC1CCCN(C)C1)c1ncc(-c2ccccc2)o1 (stereo partly drawn) [Compound 25, 3-(1-methylpiperidin-3-yl)-N-((S)-7-oxo-1-(5-phenyloxazol-2-yl)nonyl)propanamide] | < 6.00 | 6.00 to 7.00 | < 6.00
CCC(=O)CCCCC[C@H](NC(=O)CCn1c(CC)nc2ccccc21)c1ncc(-c2ccccc2)o1 [Compound 26, (S)-3-(2-ethyl-1H-benzo[d]imidazol-1-yl)-N-(7-oxo-1-(5-phenyloxazol-2-yl)nonyl)propanamide] | < 6.00 | 6.00 to 7.00 | < 6.00
CCC(=O)CCCCC[C@H](NC(=O)CCn1c(CC)nc2ccccc21)c1ncc(-c2cc3ccccc3nc2OC)o1 [Compound 29, (S)-3-(2-ethyl-1H-benzo[d]imidazol-1-yl)-N-(1-(5-(2-methoxyquinolin-3-yl)oxazol-2-yl)-7-oxononyl)propanamide] | 6.00 to 7.00 | > 7.00 | > 7.00
CCC(=O)CCCCC[C@H](NC(=O)C1CN(C)C1)c1ncc(-c2ccccc2)o1 [Compound 32, (S)-1-methyl-N-(7-oxo-1-(5-phenyloxazol-2-yl)nonyl)azetidine-3-carboxamide] | < 6.00 | > 7.00 | < 6.00
CCC(=O)CCCCC[C@H](NC(=O)C1CCN(C)C1)c1ncc(-c2cc3ccccc3nc2OC)o1 (stereo partly drawn) [Compound 34, N-((S)-1-(5-(2-methoxyquinolin-3-yl)oxazol-2-yl)-7-oxononyl)-1-methylpyrrolidine-3-carboxamide] | 6.00 to 7.00 | > 7.00 | 6.00 to 7.00
CCC(=O)CCCCC[C@H](NC(=O)C(C)(C)N(C)C)c1ncc(-c2cc3ccccc3nc2OC)o1 [Compound 35, (S)-2-(dimethylamino)-N-(1-(5-(2-methoxyquinolin-3-yl)oxazol-2-yl)-7-oxononyl)-2-methylpropanamide] | 6.00 to 7.00 | > 7.00 | > 7.00
CCC(=O)CCCCC[C@H](NC(=O)C(=O)N(C)C)c1ncc(-c2cc3ccccc3nc2OC)o1 [Compound 36, (S)-N1-(1-(5-(2-methoxyquinolin-3-yl)oxazol-2-yl)-7-oxononyl)-N2,N2-dimethyloxalamide] | < 6.00 | 6.00 to 7.00 | 6.00 to 7.00
CCC(=O)CCCCC[C@H](NC(=O)CCN(C)C)c1ncc(-c2cc3ccccc3nc2OC)o1 [Compound 38, (S)-3-(dimethylamino)-N-(1-(5-(2-methoxyquinolin-3-yl)oxazol-2-yl)-7-oxononyl)propanamide] | 6.00 to 7.00 | > 7.00 | > 7.00
CCC(=O)CCCCC[C@H](NC(=O)c1cncs1)c1nnc(-c2cc3ccccc3nc2OC)o1 [Compound 49, (S)-N-(1-(5-(2-methoxyquinolin-3-yl)-1,3,4-oxadiazol-2-yl)-7-oxononyl)thiazole-5-carboxamide] | < 6.00 |  | 6.00 to 7.00
